In US10409869B2, “(R)- and (S)-1-(3-(3-N,N-dimethylaminocarbonyl)phenoxyl-4-nitrophenyl)-1-ethyl-N,N'-bis (ethylene)phosphoramidate, compositions and methods for their use and preparation” (OBI Pharma, Inc., priority 2015, dated 2019):

Tests used:
[1] = Serum chemistry in monkeys, 2 mg/kg 30-min IV infusion; type: in vivo, Cynomolgus monkeys
Method: (§1) TH 3423 and TH 3424 were tested in […] naïve monkeys (1 male and one female for each compound at 2 mg/kg) with 30-min intravenous infusion, TK sampling: on Day 1 and Day 15: 0.25, 0.5, 0.75, 1 and 2 hr post infusion initiation. Serum chemistry and hematology: pre-dose (Day 1), day 5, day 8 (pre-dose), day 15 (pre-dose), day 22 and day 28. Clinical observation: Daily during the study, total 35 days. Food consumption: Daily during the study, total 35 days. Bodyweight measurement: Twice weekly for five weeks.

[2] = Body weight in monkeys, 2 mg/kg 30-min IV infusion; type: in vivo, Cynomolgus monkeys; conditions: Day 1, Mean
Method: as §1

Question: What does the source list for `C[C@@H](OP(=O)(N1CC1)N1CC1)c1ccc([N+](=O)[O-])c(Oc2cccc(C(=O)N(C)C)c2)c1` (single isomer, unassigned) [TH3423]?
Answer: A/G ([1]; female, Day 1 (pre-dose)): 1.8; ALB ([1]; female, Day 1 (pre-dose)): 42 g/L; ALP ([1]; female, Day 1 (pre-dose)): 205.5 U/L; ALT ([1]; female, Day 1 (pre-dose)): 41.7 U/L; AST ([1]; female, Day 1 (pre-dose)): 43.3 U/L; BUN ([1]; female, Day 1 (pre-dose)): 4.06 mM; CK ([1]; female, Day 1 (pre-dose)): 342 U/L; CREA ([1]; female, Day 1 (pre-dose)): 95 µM; Ca ([1]; female, Day 1 (pre-dose)): 2.39 mmol/L; GLB ([1]; female, Day 1 (pre-dose)): 24 g/L; Glu ([1]; female, Day 1 (pre-dose)): 6.03 mM; K ([1]; female, Day 1 (pre-dose)): 6.14 mmol/L; Na ([1]; female, Day 1 (pre-dose)): 146 mmol/L; TBIL ([1]; female, Day 1 (pre-dose)): 0.0 µM; TC ([1]; female, Day 1 (pre-dose)): 2.48 mM; TG ([1]; female, Day 1 (pre-dose)): 0.45 mmol/L; TP ([1]; female, Day 1 (pre-dose)): 66.0 g/L; γ-GT ([1]; female, Day 1 (pre-dose)): 41.5 U/L; A/G ([1]; female, Day 8 (pre-dose)): 1.3; ALB ([1]; female, Day 8 (pre-dose)): 40.9 g/L; ALP ([1]; female, Day 8 (pre-dose)): 190.3 U/L; ALT ([1]; female, Day 8 (pre-dose)): 25.5 U/L; AST ([1]; female, Day 8 (pre-dose)): 57.7 U/L; BUN ([1]; female, Day 8 (pre-dose)): 7.61 mM; CK ([1]; female, Day 8 (pre-dose)): 126 U/L; CREA ([1]; female, Day 8 (pre-dose)): 120 µM; Ca ([1]; female, Day 8 (pre-dose)): 2.47 mmol/L; GLB ([1]; female, Day 8 (pre-dose)): 30.9 g/L; Glu ([1]; female, Day 8 (pre-dose)): 2.13 mM; K ([1]; female, Day 8 (pre-dose)): 4.83 mmol/L; Na ([1]; female, Day 8 (pre-dose)): 149 mmol/L; TBIL ([1]; female, Day 8 (pre-dose)): 0.4 µM; TC ([1]; female, Day 8 (pre-dose)): 3.01 mM; TG ([1]; female, Day 8 (pre-dose)): 1.17 mmol/L; TP ([1]; female, Day 8 (pre-dose)): 71.8 g/L; γ-GT ([1]; female, Day 8 (pre-dose)): 37.0 U/L; A/G ([1]; female, Day 15 (pre-dose)): 1.7; ALB ([1]; female, Day 15 (pre-dose)): 34.2 g/L; ALP ([1]; female, Day 15 (pre-dose)): 123.6 U/L; ALT ([1]; female, Day 15 (pre-dose)): 21.1 U/L; AST ([1]; female, Day 15 (pre-dose)): 76.7 U/L; BUN ([1]; female, Day 15 (pre-dose)): 5.96 mM; CK ([1]; female, Day 15 (pre-dose)): 78 U/L; CREA ([1]; female, Day 15 (pre-dose)): 69 µM; Ca ([1]; female, Day 15 (pre-dose)): 2.36 mmol/L; GLB ([1]; female, Day 15 (pre-dose)): 20.7 g/L; Glu ([1]; female, Day 15 (pre-dose)): 2.51 mM; K ([1]; female, Day 15 (pre-dose)): 4.81 mmol/L; Na ([1]; female, Day 15 (pre-dose)): 128.17 mmol/L; TBIL ([1]; female, Day 15 (pre-dose)): 1.4 µM; TC ([1]; female, Day 15 (pre-dose)): 2.02 mM; TG ([1]; female, Day 15 (pre-dose)): 0.84 mmol/L; TP ([1]; female, Day 15 (pre-dose)): 54.9 g/L; γ-GT ([1]; female, Day 15 (pre-dose)): 29.4 U/L; A/G ([1]; male, Day 1 (pre-dose)): 1.8; ALB ([1]; male, Day 1 (pre-dose)): 46.9 g/L; ALP ([1]; male, Day 1 (pre-dose)): 746.4 U/L; ALT ([1]; male, Day 1 (pre-dose)): 45.0 U/L; AST ([1]; male, Day 1 (pre-dose)): 37.0 U/L; BUN ([1]; male, Day 1 (pre-dose)): 3.47 mM; CK ([1]; male, Day 1 (pre-dose)): 146 U/L; CREA ([1]; male, Day 1 (pre-dose)): 66 µM; Ca ([1]; male, Day 1 (pre-dose)): 2.54 mmol/L; GLB ([1]; male, Day 1 (pre-dose)): 26 g/L; Glu ([1]; male, Day 1 (pre-dose)): 3.12 mM; K ([1]; male, Day 1 (pre-dose)): 6.92 mmol/L; Na ([1]; male, Day 1 (pre-dose)): 143 mmol/L; TBIL ([1]; male, Day 1 (pre-dose)): 5.2 µM; TC ([1]; male, Day 1 (pre-dose)): 2.1 mM; TG ([1]; male, Day 1 (pre-dose)): 0.24 mmol/L; TP ([1]; male, Day 1 (pre-dose)): 72.9 g/L; γ-GT ([1]; male, Day 1 (pre-dose)): 78.4 U/L; A/G ([1]; male, Day 8 (pre-dose)): 1.1; ALB ([1]; male, Day 8 (pre-dose)): 39.1 g/L; ALP ([1]; male, Day 8 (pre-dose)): 540.3 U/L; ALT ([1]; male, Day 8 (pre-dose)): 21.0 U/L; AST ([1]; male, Day 8 (pre-dose)): 40.8 U/L; BUN ([1]; male, Day 8 (pre-dose)): 26.8 mM; CK ([1]; male, Day 8 (pre-dose)): 153 U/L; CREA ([1]; male, Day 8 (pre-dose)): 141 µM; Ca ([1]; male, Day 8 (pre-dose)): 2.55 mmol/L; GLB ([1]; male, Day 8 (pre-dose)): 37.1 g/L; Glu ([1]; male, Day 8 (pre-dose)): 5.28 mM; K ([1]; male, Day 8 (pre-dose)): 5.86 mmol/L; Na ([1]; male, Day 8 (pre-dose)): 112 mmol/L; TBIL ([1]; male, Day 8 (pre-dose)): 9.8 µM; TC ([1]; male, Day 8 (pre-dose)): 1.72 mM; TG ([1]; male, Day 8 (pre-dose)): 2.25 mmol/L; TP ([1]; male, Day 8 (pre-dose)): 76.2 g/L; γ-GT ([1]; male, Day 8 (pre-dose)): 37.6 U/L; body weight [2]: 3.50
